According to the NIST ThermoML archive (doi:10.1021/je900570e):

Assay: xn = mol fraction of the nth substance listed
Settings: Liquid; for viscosity / speed of sound: 101 kPa; for viscosity: Capillary tube (Ostwald / Ubbelohde) method; for speed of sound: Frequency=2 MHz, Pulse-echo method; for mass density: 101.33 kPa, Vibrating tube method

ClCC(Cl)Cl [1,1,2-trichloroethane] + N#CCc1ccccc1
Settings	mass density, 303.15 K [kg/m3]	mass density, 308.15 K [kg/m3]	mass density, 313.15 K [kg/m3]	speed of sound, 303.15 K [m/s]	speed of sound, 308.15 K [m/s]	speed of sound, 313.15 K [m/s]	viscosity, 303.15 K [mPa·s]	viscosity, 308.15 K [mPa·s]	viscosity, 313.15 K [mPa·s]
x2 = 0	1425	1416.1	1409.6	1129.2	1115.9	1096.1	1.019	0.9483	0.8888
x2 = 0.0185	1415.6	1407.2	1400.5	1137	1125	1105.9	1.046	0.9728	0.9045
x2 = 0.1212	1364.9	1358.6	1351.2	1176.7	1168.2	1150.9	1.158	1.064	0.9825
x2 = 0.2319	1312.6	1307.3	1300.6	1219.7	1214.2	1199.9	1.264	1.163	1.074
x2 = 0.3463	1261.1	1256.2	1250.2	1263.4	1261.9	1248.1	1.365	1.259	1.169
x2 = 0.445	1218.6	1214	1208.4	1301	1301.5	1288.9	1.454	1.336	1.242
x2 = 0.5545	1173.4	1168.9	1163.6	1342.8	1343.3	1332.8	1.545	1.411	1.307
x2 = 0.6861	1121.7	1117.3	1112.1	1393.4	1392.9	1383.2	1.631	1.491	1.381
x2 = 0.8245	1070.3	1065.7	1060.7	1446.6	1445.1	1431.8	1.706	1.561	1.436
x2 = 0.972	1018.4	1013.7	1009	1505.3	1498.7	1488.9	1.758	1.595	1.477

N#CCc1ccccc1 [benzeneacetonitrile] + ClC(Cl)=C(Cl)Cl
Settings	mass density, 303.15 K [kg/m3]	mass density, 308.15 K [kg/m3]	mass density, 313.15 K [kg/m3]	speed of sound, 303.15 K [m/s]	speed of sound, 308.15 K [m/s]	speed of sound, 313.15 K [m/s]	viscosity, 303.15 K [mPa·s]	viscosity, 308.15 K [mPa·s]	viscosity, 313.15 K [mPa·s]
x1 = 0.0231	1591.9	1583	1575.7	1037.5	1024.4	1010.5	0.8124	0.7752	0.746
x1 = 0.1322	1520.1	1512.1	1505.3	1082.9	1070.9	1060.1	0.884	0.8382	0.8001
x1 = 0.249	1445.2	1438	1431.6	1133.9	1123.3	1113.4	0.9577	0.9171	0.868
x1 = 0.37	1369.8	1363.1	1357.1	1188.9	1178.8	1168.9	1.06	0.9982	0.9342
x1 = 0.4713	1308.3	1302	1296.2	1236.8	1226.7	1216.8	1.159	1.077	1.003
x1 = 0.5767	1245.7	1239.8	1234.3	1288.5	1278.5	1268.9	1.269	1.172	1.096
x1 = 0.7051	1171.4	1166.1	1160.8	1355	1345	1335.7	1.413	1.294	1.207
x1 = 0.8386	1096.5	1091.6	1086.6	1428	1419.2	1409.3	1.571	1.43	1.329
x1 = 0.972	1023.9	1019.2	1014.5	1504.1	1497.9	1486.1	1.726	1.57	1.458
x1 = 1	1008.8	1004.1	999.5	1519.2	1512.9	1503.4	1.761	1.602	1.489
